In ChEMBL document CHEMBL1201862, “PubChem BioAssay data set” (2004):
Blank lines part the entries; values can stand above or below the molecule they belong to. The source made the active and inactive calls.

What was measured:
[1] = biological target: Kappa-type opioid receptor (Homo sapiens, UniProt P41145); format: functional
Beta-galactosidase = Beta-galactosidase (Escherichia coli, UniProt Q8VNN2); assay: Dose response counterscreen for EBI2 assay utilizing the enzyme, b-galactosidase.; format: functional
[2] = biological target: T1, ATP-dependent translocase ABCB1 (Homo sapiens, UniProt P08183); assay: P-gp JC-1 efflux blockade concentration-response – Jurkat-DNR cells, flow cytometry, set 2, dose response (AID 504569); format: functional; conditions: read-out: EC50_MICROM_;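 note: potency of pump inhibitors that raise cellular JC-1 green fluorescence up to the nicardipine level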
[3] = biological target: T1, ATP-dependent translocase ABCB1; assay: inhibition of BCRP-mediated JC-1 efflux – Ig-MXP3 cells, flow cytometry, set 2, dose response (AID 504566); format: functional; conditions: read-out: EC50_MICROM_;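 note: flow cytometry median green fluorescence of retained JC-1 dye; potency of efflux pump inhibition measured as rising substrate retention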
Vero = assay: viability loss in Vero cells – cell-based, plate reader, cherry-pick samples, cytotoxicity control, dose response (AID 687020); format: functional; conditions: Chlorocebus sabaeus
A549 = assay: viability loss in A549 cells – cell-based, plate reader, cherry-pick samples, cytotoxicity control, dose response (AID 687028); format: functional; conditions: Homo sapiens
[4] = HEK293 Cytotoxicity Assay Measured in Cell-Based System Using Plate Reader - 7071-01_Inhibitor_Dose_CherryPick_Activity_Set2.; format: functional
[5] = toxicity to human HepG2 hepatoma cells – cell-based, plate reader, dry powder samples, cytotoxicity control, dose response (AID 1159569); format: functional;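 note: inhibitor potency with signal falling toward the positive control level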
HeLa = assay: viability loss in HeLa cells – cell-based, ATP luminescence, cherry-pick samples, cytotoxicity control, dose response (AID 687004); format: functional; conditions: Homo sapiens
[6] = Dd2 malaria parasite growth inhibition potency – SYBR Green, dry powder samples, dose response (AID 1159566); format: functional, cell-based;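 note: potency for growth inhibition with lower SYBR green DNA signal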
[7] = growth inhibition of PfATP4-mutant resistant parasites – NITD609-resistant line, SYBR Green, dry powder, dose response (AID 1159571); format: functional, cell-based;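 note: parasites synchronized at ring stage by sorbitol before testing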
HEK293 = assay: viability loss in HEK293T cells – cell-based, ATP luminescence, cherry-pick samples, cytotoxicity control, dose response (AID 687005); format: functional; conditions: Homo sapiens;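 note: cells exposed to compound for 48 hours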
[8] = growth inhibition of yeast DHODH-expressing 3D7 parasites – SYBR Green, dry powder samples, dose response (AID 1159570); format: functional, cell-based;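 note: parasite growth measured after 72 hours of compound exposure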
[9] = HeLa cell viability loss – 24 h, dry powder, set 2, cytotoxicity control, dose response (AID 651774); format: functional, cell-based
Protein Wnt-3a = Protein Wnt-3a (Mus musculus, UniProt P27467); assay: SAR analysis of small molecule antagonists of Gli-SUFU in a Wnt3a luminescent reporter assay.; format: functional
[10] = blockade of melanocortin 4 receptor signaling – cell-based, plate reader, cherry pick, counter-screen for LGR2 antagonist project, dose response (AID 743444); format: functional;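 note: transfected HEK 293 cells stimulated with alpha-MSH peptide; potency of inhibitors of the alpha-MSH evoked signal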
[11] = inhibition of bursicon-driven LGR2 cAMP signaling – cell-based, HEK293, CRE-luciferase reporter, cherry pick, dose response (AID 743342); format: functional
[12] = potency of ADAM10 substrate cleavage blockers – biochemical, QFRET, dose response (AID 743254);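 note: ADAM10 enzyme with the DM2 quenched FRET peptide as substrate; EDANS fluorescence gain as the protease cuts the substrate; inhibitor potency against ADAM10 proteolytic activity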
[13] = biological target: Disintegrin and metalloproteinase domain-containing protein 17 (Homo sapiens, UniProt P78536); assay: inhibition of ADAM17 substrate cleavage – biochemical, quenched FRET substrate, counter-screen for ADAM10 exosite inhibitor project, dose response (AID 743253)
Sequence of Disintegrin and metalloproteinase domain-containing protein 17 (P78536 whole entry, the tested form may be a part): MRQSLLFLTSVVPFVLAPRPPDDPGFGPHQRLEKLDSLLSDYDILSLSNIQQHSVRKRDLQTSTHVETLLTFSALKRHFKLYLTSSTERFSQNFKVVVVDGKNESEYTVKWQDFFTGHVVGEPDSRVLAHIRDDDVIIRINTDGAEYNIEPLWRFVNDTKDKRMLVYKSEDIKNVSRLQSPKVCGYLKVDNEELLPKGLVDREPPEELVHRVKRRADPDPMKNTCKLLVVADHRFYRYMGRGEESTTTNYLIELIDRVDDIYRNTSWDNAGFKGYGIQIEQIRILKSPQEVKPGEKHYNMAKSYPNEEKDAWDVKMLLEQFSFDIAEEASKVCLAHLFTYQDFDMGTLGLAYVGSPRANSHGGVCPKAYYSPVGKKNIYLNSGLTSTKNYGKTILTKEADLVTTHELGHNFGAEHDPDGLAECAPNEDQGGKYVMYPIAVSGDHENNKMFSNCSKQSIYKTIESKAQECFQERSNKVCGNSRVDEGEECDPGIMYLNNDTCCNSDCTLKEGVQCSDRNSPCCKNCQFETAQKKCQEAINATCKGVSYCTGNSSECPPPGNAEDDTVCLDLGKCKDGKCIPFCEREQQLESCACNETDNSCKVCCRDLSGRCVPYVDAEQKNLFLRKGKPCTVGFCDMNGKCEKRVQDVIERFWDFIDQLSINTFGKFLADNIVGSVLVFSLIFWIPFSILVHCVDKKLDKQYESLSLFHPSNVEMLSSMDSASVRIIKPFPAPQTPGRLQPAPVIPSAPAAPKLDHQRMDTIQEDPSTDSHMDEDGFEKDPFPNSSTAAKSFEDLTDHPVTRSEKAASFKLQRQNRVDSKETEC

T1 sequence (P08183 whole entry): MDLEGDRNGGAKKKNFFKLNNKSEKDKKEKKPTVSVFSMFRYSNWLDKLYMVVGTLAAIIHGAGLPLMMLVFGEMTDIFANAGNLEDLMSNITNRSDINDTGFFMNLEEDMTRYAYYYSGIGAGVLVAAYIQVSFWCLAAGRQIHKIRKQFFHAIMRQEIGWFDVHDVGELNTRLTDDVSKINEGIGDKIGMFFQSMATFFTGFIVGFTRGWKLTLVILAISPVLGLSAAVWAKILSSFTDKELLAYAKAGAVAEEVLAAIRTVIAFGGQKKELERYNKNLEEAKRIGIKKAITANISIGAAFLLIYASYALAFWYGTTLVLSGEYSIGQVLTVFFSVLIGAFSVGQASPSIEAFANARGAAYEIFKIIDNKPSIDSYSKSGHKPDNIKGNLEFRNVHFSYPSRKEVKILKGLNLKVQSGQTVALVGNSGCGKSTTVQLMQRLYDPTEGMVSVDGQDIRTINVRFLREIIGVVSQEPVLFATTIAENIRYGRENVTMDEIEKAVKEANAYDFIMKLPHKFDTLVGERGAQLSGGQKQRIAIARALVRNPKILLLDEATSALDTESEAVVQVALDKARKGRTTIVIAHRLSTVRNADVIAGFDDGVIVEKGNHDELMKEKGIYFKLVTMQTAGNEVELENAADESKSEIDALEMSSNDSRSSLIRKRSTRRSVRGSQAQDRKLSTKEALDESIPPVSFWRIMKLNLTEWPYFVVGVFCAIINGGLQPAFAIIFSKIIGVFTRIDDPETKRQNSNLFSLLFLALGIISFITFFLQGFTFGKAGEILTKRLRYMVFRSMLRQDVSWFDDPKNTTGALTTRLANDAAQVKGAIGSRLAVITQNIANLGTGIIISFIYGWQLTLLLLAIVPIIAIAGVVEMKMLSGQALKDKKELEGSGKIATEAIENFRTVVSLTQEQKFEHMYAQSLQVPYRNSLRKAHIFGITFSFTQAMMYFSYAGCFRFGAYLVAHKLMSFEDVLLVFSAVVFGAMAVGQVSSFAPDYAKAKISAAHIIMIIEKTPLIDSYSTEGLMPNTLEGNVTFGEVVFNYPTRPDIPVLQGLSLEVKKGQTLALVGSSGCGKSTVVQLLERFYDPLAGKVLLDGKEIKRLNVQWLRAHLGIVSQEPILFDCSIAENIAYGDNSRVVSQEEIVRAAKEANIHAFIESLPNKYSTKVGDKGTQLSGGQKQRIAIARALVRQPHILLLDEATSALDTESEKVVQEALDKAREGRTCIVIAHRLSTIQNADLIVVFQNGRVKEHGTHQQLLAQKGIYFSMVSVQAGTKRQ
Sequence of Kappa-type opioid receptor (P41145 whole entry): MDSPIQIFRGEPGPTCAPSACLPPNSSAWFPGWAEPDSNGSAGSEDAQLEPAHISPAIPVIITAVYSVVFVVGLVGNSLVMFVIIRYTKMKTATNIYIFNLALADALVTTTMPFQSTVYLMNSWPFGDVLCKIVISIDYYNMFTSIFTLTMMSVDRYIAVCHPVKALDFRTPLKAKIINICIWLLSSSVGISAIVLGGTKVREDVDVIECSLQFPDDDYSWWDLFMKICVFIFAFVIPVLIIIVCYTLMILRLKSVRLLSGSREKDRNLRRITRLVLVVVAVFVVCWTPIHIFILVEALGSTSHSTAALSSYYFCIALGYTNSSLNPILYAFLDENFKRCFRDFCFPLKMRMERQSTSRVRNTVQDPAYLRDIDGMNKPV
Sequence of Beta-galactosidase (Q8VNN2 whole entry): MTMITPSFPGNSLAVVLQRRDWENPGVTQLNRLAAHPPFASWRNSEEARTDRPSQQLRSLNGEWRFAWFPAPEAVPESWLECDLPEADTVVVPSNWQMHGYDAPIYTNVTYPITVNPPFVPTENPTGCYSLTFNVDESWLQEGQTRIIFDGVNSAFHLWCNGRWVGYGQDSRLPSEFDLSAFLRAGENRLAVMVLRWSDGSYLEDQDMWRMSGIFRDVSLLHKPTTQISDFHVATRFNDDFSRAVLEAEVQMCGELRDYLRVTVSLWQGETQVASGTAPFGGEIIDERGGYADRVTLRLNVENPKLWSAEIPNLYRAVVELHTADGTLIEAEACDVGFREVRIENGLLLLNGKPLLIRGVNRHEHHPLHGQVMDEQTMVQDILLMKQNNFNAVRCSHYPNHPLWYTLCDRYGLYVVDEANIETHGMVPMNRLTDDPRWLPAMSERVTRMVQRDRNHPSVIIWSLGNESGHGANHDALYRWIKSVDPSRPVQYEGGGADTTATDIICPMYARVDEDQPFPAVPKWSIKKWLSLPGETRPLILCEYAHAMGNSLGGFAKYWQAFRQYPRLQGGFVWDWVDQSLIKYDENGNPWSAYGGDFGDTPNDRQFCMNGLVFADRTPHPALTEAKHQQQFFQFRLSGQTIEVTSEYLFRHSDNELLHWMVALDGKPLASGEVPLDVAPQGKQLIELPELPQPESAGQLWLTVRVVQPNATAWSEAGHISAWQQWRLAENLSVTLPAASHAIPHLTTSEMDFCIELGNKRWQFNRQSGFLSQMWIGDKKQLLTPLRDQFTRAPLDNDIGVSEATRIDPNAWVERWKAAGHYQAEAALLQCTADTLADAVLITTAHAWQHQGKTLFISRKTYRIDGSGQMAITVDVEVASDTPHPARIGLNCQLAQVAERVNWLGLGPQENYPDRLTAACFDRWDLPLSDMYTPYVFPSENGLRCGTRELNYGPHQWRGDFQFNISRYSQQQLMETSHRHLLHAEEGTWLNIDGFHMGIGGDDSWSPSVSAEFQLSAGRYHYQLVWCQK
Sequence of Protein Wnt-3a (P27467 whole entry): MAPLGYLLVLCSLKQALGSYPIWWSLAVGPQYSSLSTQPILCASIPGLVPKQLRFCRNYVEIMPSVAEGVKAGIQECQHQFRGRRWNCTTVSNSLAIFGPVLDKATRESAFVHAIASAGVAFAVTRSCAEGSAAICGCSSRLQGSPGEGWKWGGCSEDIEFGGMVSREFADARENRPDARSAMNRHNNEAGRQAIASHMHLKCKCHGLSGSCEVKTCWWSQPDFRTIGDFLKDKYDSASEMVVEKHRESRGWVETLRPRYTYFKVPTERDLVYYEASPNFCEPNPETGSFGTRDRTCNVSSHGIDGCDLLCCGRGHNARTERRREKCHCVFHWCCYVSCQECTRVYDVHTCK

IC50 [1]: < 0.98 µM (inactive)
IC50 (Beta-galactosidase): 1.23 µM (active)
Structure (SMILES): CC1(C)CC(=O)C(=CNc2ncccc2/N=C/C2=C(O)CC(C)(C)CC2=O)C(=O)C1

EC50 [2]: 4.1 µM (active)
EC50 [3]: 5.55 µM (active)
Structure (SMILES): CC(=O)N1CCN(c2cc(-c3ccccc3)nc3cc(-c4cccc(Cl)c4)nn23)CC1

Structure (SMILES): COC(=O)N1CCCCC1c1cc(C(=O)Nc2ccc(OC)cc2C)no1 (centres undefined)
AC50 (Vero): 34.5 µM (active)

Structure (SMILES): C[C@@H]1CCCCO[C@H](CN(C)Cc2ccc(Cl)c(Cl)c2)[C@H](C)CN([C@@H](C)CO)C(=O)c2cc(NC(=O)c3ccccc3)ccc2O1
AC50 (A549): 31.5 µM (active)

Structure (SMILES): N#C[C@H]1[C@@H](c2ccc(C#CCC3CCCC3)cc2)[C@@H](CO)N1C(=O)c1ccccn1
AC50 [4]: 15.7 µM (active)
AC50 [5]: 46.9 µM (active)
AC50 (HeLa): 27.8 µM (active)
AC50 [6]: 0.851 µM (active)
AC50 [7]: 1.44 µM (active)
AC50 (HEK293): 15.7 µM (active)
AC50 [8]: 1.73 µM (active)

Structure (SMILES): Cn1nnnc1NCc1ccc(C(F)(F)F)cc1
AC50 [9]: > 70 µM (inactive)

IC50 (Protein Wnt-3a): > 21.8 µM (inactive)
Structure (SMILES): O=C(Nc1cc(N2CCCCC2)ncn1)c1ccc(C(F)(F)F)cc1

Structure (SMILES): C[C@H](CO)N1C[C@H](C)[C@H](CN(C)C(=O)Nc2ccc(F)cc2)OCCCC[C@H](C)Oc2ccc(NC(=O)C3CCCCC3)cc2C1=O
AC50 [10]: 65.8 µM (active)
AC50 [11]: 1.82 µM (active)

IC50 [12]: > 69.5 µM (inactive)
IC50 [13]: > 69.5 µM (inactive)
Structure (SMILES): COc1ccc(C(=O)N/N=C/c2ccc(OC)c(COc3ccccc3)c2)cc1
